The structures appear in SMILES notation.

One test addresses T1, DDX3X (Homo sapiens, UniProt O00571).
T1 construct: endogenous in cells; host or cells: GBM0308 glioblastoma stem cells (lysate)
As to the kind of experiment: PISA assay in GBM0308 cell lysates, DDX3X. In kind it is binding. The conditions noted are these: GBM0308 lysate, compound 10 μM, AMP-PNP and (AG)8 RNA added. From the text: Derivatization-free target identification using a modified proteome integral solubility alteration (PISA) assay. The inventors next pursued proteome-wide target identification to better understand the target profiles of CSC-selective rocaglates. To enable cross-compound comparisons of target engagement, the inventors opted to use the Proteome Integral Solubility Alteration (PISA) assay,^29 a derivative of the mass spectrometry-based Cellular Thermal Shift Assay (MS-CETSA). In MS-CETSA,^30,31 target engagement is inferred through proteome-wide analysis of compound-induced changes to protein thermal stability; proteins with a shift in their half-maximal thermal denaturation temperature upon compound treatment are flagged as potential targets. The PISA assay obviates the need for MS-CETSA-derived thermal denaturation curves through curve integration by pooling of individual temperature points into a single “integral” sample for each treatment condition, thereby increasing throughput (FIG. 9). In contrast to MS-CETSA (which relies on curve comparisons), PISA determinations are performed by simply comparing soluble protein abundance levels between compound- and DMSO-treated samples. Importantly, protein fold-change measurements in PISA experiments generally scale with the thermal shift derived from CETSA experiments, and the magnitude of a thermal shift can inform on relative affinity between compounds and individual targets.^30,32-25 Maximal stability changes are protein-specific,^36 however, precluding estimations of preference for one target over another. Thus, PISA allows for simultaneous target profiling and comparisons of binding affinity between different compounds within a given target.
Of note, we also detected stabilization of DDX3Y, a paralog which shares >90% sequence similarity with DDX3X.
PISA assay in GBM0308 cell lysates: The PISA assay was performed in lysates as described by Gaetani and coworkers^S2 with slight modification. […] Lysate concentration was determined using a Pierce BCA Protein Assay Kit and adjusted to 2.0 mg/mL in lysis buffer. […]

In the next test the test system is GBM0308 neurospheres. As to the kind of experiment: Caspase 3/7 staining of neurospheres. In kind it is cell-based, human. The following applies: 1 μM, 24- and 48-hour timepoints. On the procedure: To gain additional mechanistic insights into GBM cell death induced by (−)-20, the inventors conducted several functional assays. The inventors first derived a single neurosphere from GBM0308 cells cultured in stem cell conditions, which was treated with either DMSO or (−)-20 at varying doses for three days followed by staining with PI and Hoechst dyes and subsequent imaging. […] To capture the kinetics of apoptotic events, the inventors employed caspase 3/7 staining of GBM0308 neurospheres treated with either DMSO or (−)-20 and subsequently evaluated at three timepoints over a 48-hour period. […] (FIG. 5B).
Apoptosis Assays: For the Caspase 3/7 assay single neurospheres were generated as described above. On day four, neurospheres were treated with compound (−)-20. Apoptosis in treated tumorspheres was assessed using Nexcelom's ViaStain™ Live Caspase 3/7 Detection kit (Nexcelcom, CS1-V0002-1). […] Plates were imaged using the “neurosphere 1+Mask” application to measure fluorescent intensities of the caspase dye, as described previously.^70 Apoptosis was quantified using the FITC Annexin V apoptosis detection kit II (Invitrogen). […] At 12 h and 24 h after treatment, neurospheres were gently dissociated by using trypsin 0.025%, stained with PI and FITC and analyzed by flow cytometery using a Bio-Rad ZE5 Cell Analyzer.

T1 sequence (O00571 whole entry): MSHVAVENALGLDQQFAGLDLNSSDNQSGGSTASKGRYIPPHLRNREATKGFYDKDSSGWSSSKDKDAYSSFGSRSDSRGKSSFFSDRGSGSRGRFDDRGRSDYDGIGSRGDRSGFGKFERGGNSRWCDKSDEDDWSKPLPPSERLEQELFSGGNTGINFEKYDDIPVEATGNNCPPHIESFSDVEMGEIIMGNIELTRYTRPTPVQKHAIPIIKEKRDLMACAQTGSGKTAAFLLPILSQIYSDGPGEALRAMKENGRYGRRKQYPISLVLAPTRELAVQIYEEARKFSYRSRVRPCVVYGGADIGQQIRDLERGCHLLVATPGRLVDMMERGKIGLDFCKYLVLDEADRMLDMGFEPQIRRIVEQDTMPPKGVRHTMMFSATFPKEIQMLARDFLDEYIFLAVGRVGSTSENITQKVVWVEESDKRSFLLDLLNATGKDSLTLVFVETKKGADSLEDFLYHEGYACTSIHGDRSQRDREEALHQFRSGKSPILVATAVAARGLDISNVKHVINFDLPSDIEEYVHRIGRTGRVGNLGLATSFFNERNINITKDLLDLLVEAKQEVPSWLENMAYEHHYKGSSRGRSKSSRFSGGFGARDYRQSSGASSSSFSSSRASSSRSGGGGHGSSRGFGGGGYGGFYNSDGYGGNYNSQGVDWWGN

With `CONC(=O)[C@H]1[C@@H](O)[C@@]2(O)c3c(OC)cc(OC)cc3O[C@@]2(c2ccc(Br)cc2)[C@@H]1c1ccccc1` [(−)-7, SDS-1-021], the “thermal stabilization of DDX3X (PISA), in words” value on DDX3X was “stabilized”.

Take `COc1cc(OC)c2c(c1)O[C@@]1(c3ccc(Br)cc3)[C@H](c3ccccc3)[C@@H](C(=O)NS(=O)(=O)N(C)C)[C@@H](O)[C@@]21O` [(−)-20, (1R,2R,3S,3aR,8bS)-3a-(4-bromophenyl)-N—(N,N-dimethylsulfamoyl)-1,8b-dihydroxy-6,8-dimethoxy-3-phenyl-2,3,3a,8b-tetrahydro-1H-cyclopenta[b]benzofuran-2-carboxamide]: in the test on GBM0308 neurospheres, the “caspase 3/7 staining” value is listed as “positive staining”. For the same compound, the “thermal stabilization of DDX3X (PISA), in words” value on DDX3X is “stabilized”.

The values above are taken from patent publication US12612395B2, “Rocaglate derivatives and uses thereof” (TRUSTEES OF BOSTON UNIVERSITY, priority 2023, dated 2026).
